Reference: patent US20230286958A1, “PLASMA KALLIKREIN INHIBITORS” (Merck Sharp & Dohme LLC, priority 2020, published 2023)

How the values were obtained:
[1] = target: Human plasma kallikrein (Homo sapiens (Human), UniProt P03952); assay: Kallikrein Assay (fluorogenic substrate Acetyl-K-P-R-AFC); type: biochemical; details: Plasma Kallikrein (PKal)
Experimental: (§1) The effectiveness of a compound of the present invention as an inhibitor of Kallikrein can be determined using a relevant purified serine protease, and an appropriate synthetic substrate. The rate of hydrolysis of the chromogenic or fluorogenic substrate by the relevant serine protease was measured both in the absence and presence of compounds of the present invention. Assays were conducted at room temperature or at 37° C. […] A decrease in the rate of fluorescence change in the presence of inhibitor is indicative of enzyme inhibition. Such methods are known to one skilled in the art. The results of this assay are expressed as the half-maximal inhibitory concentrations (IC50), or the inhibitory constant, Ki.
Kallikrein determinations were made in 50 mM HEPES buffer at pH 7.4 containing 150 mM NaCl, 5 mM CaC12, and 0.1% PEG 8000 (polyethylene glycol; Fisher Scientific). Determinations were made using purified Human plasma kallikrein at a final concentration of 0.5 nM (Enzyme Research Laboratories) and the synthetic substrate, Acetyl-K-P-R-AFC (Sigma # C6608) at a concentration of […].
Times required to achieve equilibration between enzyme and inhibitor were determined in control experiments. […] IC50 was determined by inflection point from a four parameter logistic curve fit. Ki was calculated using the Cheng Prusoff equation, Ki = IC50/(1+([S]/Km)).

[2] = target: human Factor XIa (Homo sapiens (Human), UniProt P03951); assay: Factor XIa Assay (fluorogenic substrate GPR-AFC); type: biochemical; details: Factor XIa (FXIa)
Experimental: as §1, with “Coagulation Factor XIa” for “Kallikrein”
Compounds were pre-incubated for 30 minutes at 25° C. with human (0.04 nM) Factor XIa in 50 mM HEPES buffer with 150 mM sodium chloride, 5 mM calcium chloride, 0.1% PEG 8000, pH 7.4. […] The % inhibition for each data point was calculated from the data and analyzed using the log (inhibitor) vs. response four parameters equation to determine the half-maximal inhibitory concentrations (IC50). The IC50 were converted to equilibrium inhibitory constants (Ki) using the Cheng-Prusoff equation.

Chain of Human plasma kallikrein (P03952 391-638): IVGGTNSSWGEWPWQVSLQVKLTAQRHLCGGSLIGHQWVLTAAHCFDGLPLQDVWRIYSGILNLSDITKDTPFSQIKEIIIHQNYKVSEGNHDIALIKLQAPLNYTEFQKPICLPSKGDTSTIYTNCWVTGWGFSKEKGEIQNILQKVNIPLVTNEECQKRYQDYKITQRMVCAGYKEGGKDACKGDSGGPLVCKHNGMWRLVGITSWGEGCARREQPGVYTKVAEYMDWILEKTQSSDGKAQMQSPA
Chain of Human plasma kallikrein (P03952 20-390 partner): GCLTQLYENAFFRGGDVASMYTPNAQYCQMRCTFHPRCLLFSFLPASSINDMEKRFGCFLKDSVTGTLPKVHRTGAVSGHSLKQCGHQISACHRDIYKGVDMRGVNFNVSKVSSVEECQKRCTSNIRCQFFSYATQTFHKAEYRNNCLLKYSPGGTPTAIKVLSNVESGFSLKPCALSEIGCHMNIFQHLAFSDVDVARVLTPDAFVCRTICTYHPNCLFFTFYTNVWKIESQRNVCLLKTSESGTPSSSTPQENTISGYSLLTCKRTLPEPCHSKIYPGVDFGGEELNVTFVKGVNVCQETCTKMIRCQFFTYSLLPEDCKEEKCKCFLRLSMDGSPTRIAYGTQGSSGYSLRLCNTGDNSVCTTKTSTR
Chain of human Factor XIa (P03951 388-625 limits assumed): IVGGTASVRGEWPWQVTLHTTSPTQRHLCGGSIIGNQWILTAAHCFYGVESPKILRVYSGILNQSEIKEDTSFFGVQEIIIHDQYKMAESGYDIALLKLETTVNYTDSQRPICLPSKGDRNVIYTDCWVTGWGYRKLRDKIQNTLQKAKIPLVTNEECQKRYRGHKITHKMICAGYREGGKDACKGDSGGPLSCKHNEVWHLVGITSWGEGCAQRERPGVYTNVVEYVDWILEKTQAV
Chain of human Factor XIa (P03951 19-387 partner limits assumed): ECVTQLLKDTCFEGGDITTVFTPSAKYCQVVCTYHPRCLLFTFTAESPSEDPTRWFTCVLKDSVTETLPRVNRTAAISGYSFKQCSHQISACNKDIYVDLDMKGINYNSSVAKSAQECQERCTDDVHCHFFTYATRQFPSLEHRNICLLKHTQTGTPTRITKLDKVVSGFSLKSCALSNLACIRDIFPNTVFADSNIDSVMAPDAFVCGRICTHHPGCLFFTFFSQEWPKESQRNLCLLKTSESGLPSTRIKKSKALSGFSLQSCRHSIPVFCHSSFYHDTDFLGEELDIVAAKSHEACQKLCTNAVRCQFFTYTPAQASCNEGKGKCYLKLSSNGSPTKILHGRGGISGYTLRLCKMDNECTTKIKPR

SMILES	IC50 [1] [nM]	IC50 [2] [µM]
Cc1nc(C(C)n2cc(NC(=O)c3cncc(-c4c(C(F)F)ccc(Cl)c4F)n3)cn2)ccc1N1C[C@H]2C[C@H]2C1=O (single isomer, unassigned) [Example 60, 6-(3-Chloro-6-(difluoromethyl)-2-fluorophenyl)-N-(1-((S or R)-1-(6-methyl-5-((1R,5S)-2-oxo-3-azabicyclo[3.1.0]hexan-3-yl)pyridin-2-yl)ethyl)-1H-pyrazol-4-yl)pyrazine-2-carboxamide]	5.5	> 10
CCc1nc(C(C)n2cc(NC(=O)c3cncc(-c4c(C(F)F)ccc(Cl)c4F)n3)cn2)cnc1N1C[C@H]2C[C@H]2C1=O (single isomer, unassigned) [Example 56, 6-(3-Chloro-6-(difluoromethyl)-2-fluorophenyl)-N-(1-((R or S)-1-(6-ethyl-5-((1R,5S)-2-oxo-3-azabicyclo[3.1.0]hexan-3-yl)pyrazin-2-yl)ethyl)-1H-pyrazol-4-yl)pyrazine-2-carboxamide]	1.5	> 10
CC(c1cnc(N2CCN(C)C2=O)nc1)n1cc(NC(=O)c2cncc(-c3c(C(F)F)ccc(Cl)c3F)n2)cn1 (racemic) [Example 28, (S and R)-6-(3-Chloro-6-(difluoromethyl)-2-fluorophenyl)-N-(1-(1-(2-(3-methyl-2-oxoimidazolidin-1-yl)pyrimidin-5-yl)ethyl)-1H-pyrazol-4-yl)pyrazine-2-carboxamide]	47.4	> 10
Cc1ncc(-c2c(C(F)F)ccc(Cl)c2F)nc1C(=O)Nc1cnn(Cc2ccc(N3C[C@H]4C[C@H]4C3=O)nn2)c1 [Example 21, 6-(3-Chloro-6-(difluoromethyl)-2-fluorophenyl)-3-methyl-N-(1-((6-((1R,5S)-2-oxo-3-azabicyclo[3.1.0]hexan-3-yl)pyridazin-3-yl)methyl)-1H-pyrazol-4-yl)pyrazine-2-carboxamide]	38	7.01
Cc1cc(Cn2cc(NC(=O)c3nc(-c4c(C(F)F)ccc(Cl)c4F)cnc3C)cn2)cnc1N1C[C@H]2C[C@H]2C1=O [Example 41, 6-(3-Chloro-6-(difluoromethyl)-2-fluorophenyl)-3-methyl-N-(1-((5-methyl-6-((1R,5S)-2-oxo-3-azabicyclo[3.1.0]hexan-3-yl)pyridin-3-yl)methyl)-1H-pyrazol-4-yl)pyrazine-2-carboxamide]	0.2	0.053
Cc1nc([C@H](C)n2cc(NC(=O)c3nc(-c4c(C(F)F)ccc(Cl)c4F)cnc3C)cn2)ncc1N1C[C@H]2C[C@H]2C1=O [Example 1, 6-(3-Chloro-6-(difluoromethyl)-2-fluorophenyl)-3-methyl-N-(1-((S)-1-(4-methyl-5-((1R,5S)-2-oxo-3-azabicyclo[3.1.0]hexan-3-yl)pyrimidin-2-yl)ethyl)-1H-pyrazol-4-yl)pyrazine-2-carboxamide]	0.9	> 10
Cc1cc(C(C)n2cc(NC(=O)c3nc(-c4c(C(F)F)ccc(Cl)c4F)cnc3CO)cn2)cnc1N1C[C@H]2C[C@H]2C1=O (single isomer, unassigned) [Example 200, 6-(3-Chloro-6-(difluoromethyl)-2-fluorophenyl)-3-(hydroxymethyl)-N-(1-((R or S)-1-(5-methyl-6-((1R,5S)-2-oxo-3-azabicyclo[3.1.0]hexan-3-yl)pyridin-3-yl)ethyl)-1H-pyrazol-4-yl)pyrazine-2-carboxamide]	0.2	
Cc1cc(C(C)n2cc(NC(=O)c3nc(-c4c(C(F)F)ccc(Cl)c4F)cnc3CO)cn2)cnc1N1C[C@H]2C[C@H]2C1=O (single isomer, unassigned) [Example 199, 6-(3-Chloro-6-(difluoromethyl)-2-fluorophenyl)-3-(hydroxymethyl)-N-(1-((S or R)-1-(5-methyl-6-((1R,5S)-2-oxo-3-azabicyclo[3.1.0]hexan-3-yl)pyridin-3-yl)ethyl)-1H-pyrazol-4-yl)pyrazine-2-carboxamide]	0.2	
